Values of other authors, collected in patent US7351715B2, “Unit dosage forms for the treatment of herpes simplex” (ChronoRx, LLC, priority 1998, dated 2008).

What was measured:
HSV-1 [1] = details: in vitro, supplementation with exogenous GSH
[2] = rabbits and rats
HSV-1 [3] = details: in vitro cell culture
[4] = tested on: herpes simplex virus infections
HSV = details: topical application, guinea pigs

N[C@@H](CCC(=O)N[C@@H](CS)C(=O)NCC(=O)O)C(=O)O [GSH, Glutathione]
inhibition of the replication of HSV-1 (HSV-1 [1]): over 99%

O=S(=O)([O-])[O-].[Zn+2] [Zinc sulfate]
inactivation of free herpes simplex virus (herpes simplex virus): inactivates free herpes simplex virus

O=c1[nH]c(=O)n([C@H]2C[C@H](O)[C@@H](CO)O2)cc1I [idoxuridine, 2′-Deoxy-5-idouridine]
fetal malformations [2]: implicated in fetal malformations in rabbits and rats

O=c1c(O)c(-c2ccc(O)c(O)c2)oc2cc(O)cc(O)c12 [quercetin, 3,3′,4′,5,7-pentahydroxyflavone]
intracellular viral replication (HSV-1 [3]): reduced intracellular viral replication
reduction of infectivity of viruses including HSV-1 (HSV-1 [3]): concentration-dependent reduction of infectivity

Cl.NCCCC[C@H](N)C(=O)O [L-lysine, L-lysine monohydrochloride]
effect on rate of healing or appearance of lesions ([4]; at least one study): no effect on the rate of healing or the appearance of lesions
reduction of occurrence, severity and healing time ([4]; oral, study involving 52 subjects): effective agent for the reduction of occurrence, severity and healing time
herpes simplex patients with subjective improvement ([4]; patients using L-lysine, one study): 88%
protection of skin from HSV inoculation (HSV): protected the skin from HSV inoculation
